Experimental data reported in patent publication US10597430B2, “Chimeric gene for heterologous expression which encodes for peptides with antimicrobial activity” (Instituto de Investigaciones Agropecuarias, priority 2013, dated 2020).

Assays:
Assay type in all cases: cell-based
[1] = test system: Trichoderma harzianum; assay: Antifungal growth assay on PDA agar supplemented with peptide (spore count, mycelium area); settings: respectively
Protocol: (§1) a) Evaluation of Peptides obtained in E coli: Isolates from Botrytis cinerea, Fusarium oxysporum, Trichoderma harzianum and Alternaria spp. were treated with the purified fractions of the digested and non-digested peptides (pre-TEV/rAp-S and rAp-S) derived from the selected recombinant clone of E. coli (Example 3).
(§2) The potential antifungal abilities of both peptides were evaluated by analysis of the growth patterns of these fungi on agar PDA (potato-dextrose) in Petri dishes supplemented with protein extracts at 500 μg/L (162 nM) and 250 μg/L (81 nM), respectively.
(§3) The control growth assays were performed on PDA dishes without peptides. The growth patterns were evaluated according the amount of time required for the fungi to reach the dish walls in the control plates (10 days after inoculation in darkness at room temperature). Structural images of the fungi hyphae patterns were obtained using a Olympus® microscope (Center Valley, Pa., USA), and spores were counted using a Neubauer […] (Brand®, Wertheim, Germany) at 40×. The data were subjected to analyses of variance, and averages were separated by the least significant difference test (LSD) at the 5% level of significance using Statgraphics Centurion XV (Manμistics Inc., Rockville, Md., USA). Petri dishes containing grown fungi were scanned and digitalized for statistical processing. The area of the mycelia was quantified using Gel-Pro Analyzer 4.0 (Media Cybernetics, Minneapolis, Minn., USA), and surface values in pixels were transferred to Excel (Microsoft Corporation, USA) for analysis. The average value of the colored haloes was calculated using scanned images of five repetitions on the tenth day after inoculation. The collected data were subjected to variance analysis, and the averages separated by LSD at the 5% level of significance.

[2] = test system: Alternaria sp; assay: as above; settings: respectively
Protocol: as §1, §2, §3

[3] = test system: Botrytis cinerea; assay: as above; settings: respectively
Protocol: as §1, §2, §3

[4] = test system: Fusarium oxysporum; assay: as above; settings: respectively
Protocol: as §1, §2, §3

[5] = test system: Xanthomona campestris; assay: Growth inhibition assay at different concentrations of peptide rAp-S (specific growth rate, OD600); settings: control 0.385
Protocol: (§4) Growth Inhibition Assays at Different Concentrations of Peptide rAp-S: The inoculation of 5 mL of LB was performed with 100 μL of bacteria (Xanthomona campestris and Clavibacter michiganensis), followed by overnight culturing. The absorbance was quantified at OD600. Once the Abs was quantified, dilutions were made to obtain an Abs to inoculate each tube with the same concentration of bacteria with an initial OD600 of 0.04. Different peptide concentrations were used. A final volume of 10 mL in a 50 mL tube was used. In addition, a control without peptide was used for each bacterium. The kinetics of the process was followed for 8 h from time zero, determining the Abs every 2 h. The data were logarithmically transformed for the exponential phase of kinetics, and a linear regression was performed on the transformed data. The slope of the regression is the specific growth rate of the bacteria: μ (h^−1).

[6] = test system: Clavibacter michiganensis; assay: as above; settings: control 0.072
Protocol: as §4

[7] = PDA supplemented with pre-TEV/rAp-S 500 μg/L (162 nM) and rAp-S 250 μg/L (81 nM), 10 days after inoculation
[8] = PDA supplemented with pre-TEV/rAp-S 500 μg/L and rAp-S 250 μg/L, tenth day after inoculation

**Q.** Which “Spore count, Average” value [1, 7] does the source give for “rAp-S: recombinant version of antimicrobial peptide Ap-S, 31 amino acids MPVGIVIAPKKSPFTAKKPGPVLSGVKAGPG (SEQ ID No. 9), released by TEV protease digestion (listed as Argopecten purpuratus)” here?
**A.** 5.0 × 10^6

**Q.** What about the “Central area of the mycelium, Average” value [1, 8] of the same substance?
**A.** 85718 pixeles

**Q.** And the “Spore count, Average” value [2, 7]?
**A.** 0

**Q.** What about the “Central area of the mycelium, Average” value [2, 8] of the same substance?
**A.** 412403 pixeles

**Q.** And the “Spore count, Average” value [3, 7]?
**A.** 1.02 × 10^6

**Q.** What about the “Central area of the mycelium, Average” value [3, 8] of the same substance?
**A.** 170781 pixeles

**Q.** And the “Spore count, Average” value [4, 7]?
**A.** 7.6 × 10^5

**Q.** What about the “Central area of the mycelium, Average” value [4, 8] of the same substance?
**A.** 511699 pixeles

**Q.** And the “Specific growth rate μ” value ([5]; peptide 1 μg/L)?
**A.** 0.371 h⁻¹

**Q.** What about the “Specific growth rate μ” value ([5]; peptide 10 μg/L) of the same substance?
**A.** 0.375 h⁻¹

**Q.** And the “Specific growth rate μ” value ([5]; peptide 100 μg/L)?
**A.** 0.386 h⁻¹

**Q.** And the “Specific growth rate μ” value ([5]; peptide 1 mg/L)?
**A.** 0.329 h⁻¹

**Q.** And the “Specific growth rate μ” value ([5]; peptide 2 mg/L)?
**A.** 0.015 h⁻¹

**Q.** What about the “Specific growth rate μ” value ([5]; peptide 3 mg/L) of the same substance?
**A.** -0.012 h⁻¹

**Q.** What about the “Specific growth rate μ” value ([5]; peptide 4 mg/L) of the same substance?
**A.** -0.019 h⁻¹

**Q.** What about the “Specific growth rate μ” value ([6]; peptide 1 μg/L) of the same substance?
**A.** 0.070 h⁻¹

**Q.** What about the “Specific growth rate μ” value ([6]; peptide 10 μg/L) of the same substance?
**A.** 0.069 h⁻¹

**Q.** What about the “Specific growth rate μ” value ([6]; peptide 100 μg/L) of the same substance?
**A.** 0.075 h⁻¹

**Q.** What about the “Specific growth rate μ” value ([6]; peptide 1 mg/L) of the same substance?
**A.** 0.069 h⁻¹

**Q.** And the “Specific growth rate μ” value ([6]; peptide 2 mg/L)?
**A.** 0.069 h⁻¹

**Q.** What about the “Specific growth rate μ” value ([6]; peptide 3 mg/L) of the same substance?
**A.** 0.073 h⁻¹

**Q.** And the “Specific growth rate μ” value ([6]; peptide 4 mg/L)?
**A.** 0.066 h⁻¹

**Q.** What about the “Specific growth rate μ” value ([6]; peptide 12.5 mg/L) of the same substance?
**A.** 0.009 h⁻¹

**Q.** And the “Specific growth rate μ” value ([6]; peptide 15.5 mg/L)?
**A.** 0.003 h⁻¹
